Assay results as given in patent US20230295234A1, “ANTIMICROBIAL PEPTIDOMIMETICS” (SPEXIS AG, priority 2020, published 2023).
Where two headings read alike, the source gives them in different places. Peptide text beside a SMILES is read from it.

What was measured:
[1] = system: Escherichia coli MCR-1 Af 45; conditions: Mueller-Hinton broth II, 18-20 hours at 35° C.
In short: (§1)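 Activity is measured against peptides serially diluted two-fold in water with 0.002% final Polysorbate 80. The cells are in cation-adjusted MHII broth at roughly 5×10^5 CFU/mL, prepared from a 0.5 McFarland suspension in 0.85% NaCl.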

[2] = system: Escherichia coli ATCC 25922
In short: as §1

[3] = system: Klebsiella pneumoniae SSI3010
In short: as §1

[4] = system: human red blood cells (hRBC); test: Hemolysis of human red blood cells; format: cell-based
In short: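 PBS-washed human red blood cells (20% v/v) were incubated with peptide at 200 μg/mL for 1 h at 37 °C with shaking. Supernatant OD was read at 540 nm after 8-fold dilution. Hemolysis is expressed as percent of the water control.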

[5] = Mueller-Hinton broth II, 18-20 hours at 35° C.

SMILES | Escherichia coli MCR-1 Af 45 MIC [1] | Escherichia coli ATCC 25922 MIC ([2]; ATCC 25922) | Klebsiella pneumoniae SSI3010 MIC ([3]; SSI3010) | Hemolysis at 0.2 g/L ([4]; red cells of human, 1 h) | Escherichia coli ATCC 25922 MIC [2, 5] | Klebsiella pneumoniae SSI3010 MIC [3, 5] | Hemolysis at 0.2 g/L ([4]; 20% hRBC, 1 h at 37° C.)
CC[C@H](C)[C@H](NC(=O)[C@@H](NC(=O)[C@@H]1CCCN1C(=O)[C@@H](O)C(C)C)[C@@H](C)CC)C(=O)N[C@@H](Cc1ccc(O)cc1)C(=O)N[C@H]1CSSC[C@@H](C(=O)N[C@@H](CCN)C(=O)N[C@@H](CCCNC(=N)N)C(=O)N[C@@H](Cc2ccc(O)cc2)C(=O)O)NC(=O)[C@H](CCCCN)NC(=O)[C@@H](CCN)NC(=O)[C@H]([C@@H](C)O)NC(=O)[C@H](CCN)NC(=O)[C@H](CCCNC(=N)N)NC(=O)[C@H](CC(N)=O)NC1=O [Example 146] (HELM PEPTIDE1{[CC(C)[C@H](O)C(=O)[*:2]].P.I.I.Y.C.N.R.[Dab].T.[NCC[C@@H](N[*:1])C(=O)[*:2]].K.C.[Dab].R.Y}$PEPTIDE1,PEPTIDE1,6:R3-13:R3$$$V2.0) | 0.5 µg/mL | 0.5 µg/mL | 0.5 µg/mL | 0% |  |  | 
CC[C@H](C)[C@H](NC(=O)[C@@H](NC(=O)[C@@H]1C[C@@H](O)CN1C(=O)[C@@H](N)C(C)C)[C@@H](C)CC)C(=O)N[C@@H](Cc1ccc(O)cc1)C(=O)N[C@@H]1C(=O)N[C@@H](CC(N)=O)C(=O)N[C@@H](CCCNC(=N)N)C(=O)N[C@@H](CCN)C(=O)N[C@@H]([C@@H](C)O)C(=O)N[C@H](CCN)C(=O)N[C@@H](CCCCN)C(=O)N[C@H](C(=O)N[C@@H](CCN)C(=O)N[C@@H](CCCNC(=N)N)C(=O)N[C@@H](Cc2ccc(O)cc2)C(=O)O)CSSC1(C)C [Example 147] (HELM PEPTIDE1{V.[Hyp].I.I.Y.[Pen].N.R.[Dab].T.[NCC[C@@H](N[*:1])C(=O)[*:2]].K.C.[Dab].R.Y}$PEPTIDE1,PEPTIDE1,6:R3-13:R3$$$V2.0) | 0.0625 µg/mL |  |  |  | 0.125 µg/mL | 0.25 µg/mL | 0%
CC[C@H](C)[C@H](NC(=O)[C@@H]1C[C@@H](O)CN1C(=O)[C@@H](N)C(C)C)C(=O)N[C@H](C(=O)N[C@@H](Cc1ccc(O)cc1)C(=O)N[C@@H]1C(=O)N[C@@H](CC(N)=O)C(=O)N[C@@H](CCCNC(=N)N)C(=O)N[C@@H](CCN)C(=O)N[C@@H]([C@@H](C)O)C(=O)N[C@H](CCN)C(=O)N[C@@H](CCCCN)C(=O)N[C@H](C(=O)N[C@@H](CCN)C(=O)N[C@@H](CCCNC(=N)N)C(=O)N[C@@H](Cc2ccc(O)cc2)C(=O)O)CSSC1(C)C)[C@@H](C)O [Example 148] (HELM PEPTIDE1{V.[Hyp].I.T.Y.[Pen].N.R.[Dab].T.[NCC[C@@H](N[*:1])C(=O)[*:2]].K.C.[Dab].R.Y}$PEPTIDE1,PEPTIDE1,6:R3-13:R3$$$V2.0) | 0.125 µg/mL | ≤0.125 µg/mL | 0.25 µg/mL | 0% |  |  | 
CC[C@H](C)[C@H](NC(=O)[C@@H]1C[C@@H](O)CN1C(=O)[C@@H](N)C(C)C)C(=O)N[C@H](C(=O)N[C@@H](Cc1ccc(O)cc1)C(=O)N[C@@H]1C(=O)N[C@@H](CC(N)=O)C(=O)N[C@@H](CCCNC(=N)N)C(=O)N[C@@H](CCN)C(=O)N[C@@H]([C@@H](C)O)C(=O)N[C@H](CN)C(=O)N[C@@H](CCCCN)C(=O)N[C@H](C(=O)N[C@@H](CCN)C(=O)N[C@@H](CCCNC(=N)N)C(=O)N[C@@H](Cc2ccc(O)cc2)C(=O)O)CSSC1(C)C)[C@@H](C)O [Example 149] (HELM PEPTIDE1{V.[Hyp].I.T.Y.[Pen].N.R.[Dab].T.[NC[C@@H](N[*:1])C(=O)[*:2]].K.C.[Dab].R.Y}$PEPTIDE1,PEPTIDE1,6:R3-13:R3$$$V2.0) | 0.25 µg/mL | 0.25 µg/mL | 0.5 µg/mL | 0% |  |  | 
CC[C@H](C)[C@H](NC(=O)[C@@H]1C[C@@H](O)CN1C(=O)[C@@H](N)C(C)C)C(=O)N[C@H](C(=O)N[C@@H](Cc1ccc(O)cc1)C(=O)N[C@@H]1C(=O)N[C@@H](CC(N)=O)C(=O)N[C@@H](CCCNC(=N)N)C(=O)N[C@@H](CCN)C(=O)N[C@@H]([C@@H](C)O)C(=O)N[C@H](CCCN)C(=O)N[C@@H](CCCCN)C(=O)N[C@H](C(=O)N[C@@H](CCN)C(=O)N[C@@H](CCCNC(=N)N)C(=O)N[C@@H](Cc2ccc(O)cc2)C(=O)O)CSSC1(C)C)[C@@H](C)O [Example 150] (HELM PEPTIDE1{V.[Hyp].I.T.Y.[Pen].N.R.[Dab].T.[NCCC[C@@H](N[*:1])C(=O)[*:2]].K.C.[Dab].R.Y}$PEPTIDE1,PEPTIDE1,6:R3-13:R3$$$V2.0) | 0.125 µg/mL | 0.25 µg/mL | 0.5 µg/mL | 0% |  |  | 
CC[C@H](C)[C@H](NC(=O)[C@@H]1C[C@@H](O)CN1C(=O)[C@@H](N)C(C)C)C(=O)N[C@H](C(=O)N[C@@H](Cc1ccc(O)cc1)C(=O)N[C@@H]1C(=O)N[C@@H](CC(N)=O)C(=O)N[C@@H](CCCNC(=N)N)C(=O)N[C@@H](CCN)C(=O)N[C@@H]([C@@H](C)O)C(=O)N[C@H](CCCCN)C(=O)N[C@@H](CCCCN)C(=O)N[C@H](C(=O)N[C@@H](CCN)C(=O)N[C@@H](CCCNC(=N)N)C(=O)N[C@@H](Cc2ccc(O)cc2)C(=O)O)CSSC1(C)C)[C@@H](C)O [Example 151] (HELM PEPTIDE1{V.[Hyp].I.T.Y.[Pen].N.R.[Dab].T.[dK].K.C.[Dab].R.Y}$PEPTIDE1,PEPTIDE1,6:R3-13:R3$$$V2.0) | 0.25 µg/mL | 0.25 µg/mL | 0.5 µg/mL | 0% |  |  | 
CC[C@H](C)[C@H](NC(=O)[C@@H]1C[C@@H](O)CN1C(=O)[C@@H](N)C(C)C)C(=O)N[C@H](C(=O)N[C@@H](Cc1ccc(O)cc1)C(=O)N[C@@H]1C(=O)N[C@@H](CC(N)=O)C(=O)N[C@@H](CCCNC(=N)N)C(=O)N[C@@H](CCN)C(=O)N[C@@H]([C@@H](C)O)C(=O)N[C@H](CCCNC(=N)N)C(=O)N[C@@H](CCCCN)C(=O)N[C@H](C(=O)N[C@@H](CCN)C(=O)N[C@@H](CCCNC(=N)N)C(=O)N[C@@H](Cc2ccc(O)cc2)C(=O)O)CSSC1(C)C)[C@@H](C)O [Example 152] (HELM PEPTIDE1{V.[Hyp].I.T.Y.[Pen].N.R.[Dab].T.[dR].K.C.[Dab].R.Y}$PEPTIDE1,PEPTIDE1,6:R3-13:R3$$$V2.0) | 0.25 µg/mL | 0.25 µg/mL | 0.25 µg/mL | 0% |  |  | 
CC[C@H](C)[C@H](NC(=O)[C@@H]1C[C@@H](O)CN1C(=O)[C@@H](N)C(C)C)C(=O)N[C@@H](CCN)C(=O)N[C@@H](Cc1ccc(O)cc1)C(=O)N[C@@H]1C(=O)N[C@@H](CC(N)=O)C(=O)N[C@@H](CCCNC(=N)N)C(=O)N[C@@H](CCN)C(=O)N[C@@H]([C@@H](C)O)C(=O)N[C@H](CCN)C(=O)N[C@@H](CCCCN)C(=O)N[C@H](C(=O)N[C@@H](CCN)C(=O)N[C@H](C(=O)N[C@@H](Cc2ccc(O)cc2)C(=O)O)[C@@H](C)O)CSSC1(C)C [Example 153] (HELM PEPTIDE1{V.[Hyp].I.[Dab].Y.[Pen].N.R.[Dab].T.[NCC[C@@H](N[*:1])C(=O)[*:2]].K.C.[Dab].T.Y}$PEPTIDE1,PEPTIDE1,6:R3-13:R3$$$V2.0) | 0.5 µg/mL | 0.125 µg/mL | 0.5 µg/mL | 0% |  |  | 
CC[C@H](C)[C@H](NC(=O)[C@@H]1C[C@@H](O)CN1C(=O)[C@@H](N)C(C)C)C(=O)N[C@@H](CCCNC(=N)N)C(=O)N[C@@H](Cc1ccc(O)cc1)C(=O)N[C@@H]1C(=O)N[C@@H](CC(N)=O)C(=O)N[C@@H](CCCNC(=N)N)C(=O)N[C@@H](CCN)C(=O)N[C@@H]([C@@H](C)O)C(=O)N[C@H](CCN)C(=O)N[C@@H](CCCCN)C(=O)N[C@H](C(=O)N[C@@H](CCN)C(=O)N[C@H](C(=O)N[C@@H](Cc2ccc(O)cc2)C(=O)O)[C@@H](C)O)CSSC1(C)C [Example 154] (HELM PEPTIDE1{V.[Hyp].I.R.Y.[Pen].N.R.[Dab].T.[NCC[C@@H](N[*:1])C(=O)[*:2]].K.C.[Dab].T.Y}$PEPTIDE1,PEPTIDE1,6:R3-13:R3$$$V2.0) | 0.25 µg/mL | 0.25 µg/mL | 0.5 µg/mL | 0% |  |  | 
CC[C@H](C)[C@H](NC(=O)[C@@H]1C[C@@H](O)CN1C(=O)[C@@H](N)C(C)C)C(=O)N[C@@H](Cc1ccc(O)cc1)C(=O)N[C@@H](Cc1ccc(O)cc1)C(=O)N[C@@H]1C(=O)N[C@@H](CC(N)=O)C(=O)N[C@@H](CCCNC(=N)N)C(=O)N[C@@H](CCN)C(=O)N[C@@H]([C@@H](C)O)C(=O)N[C@H](CCN)C(=O)N[C@@H](CCCCN)C(=O)N[C@H](C(=O)N[C@@H](CCN)C(=O)N[C@@H](CCCNC(=N)N)C(=O)N[C@@H](Cc2ccc(O)cc2)C(=O)O)CSSC1(C)C [Example 155] (HELM PEPTIDE1{V.[Hyp].I.Y.Y.[Pen].N.R.[Dab].T.[NCC[C@@H](N[*:1])C(=O)[*:2]].K.C.[Dab].R.Y}$PEPTIDE1,PEPTIDE1,6:R3-13:R3$$$V2.0) | 0.0625 µg/mL | 0.125 µg/mL | 0.25 µg/mL | 0% |  |  | 
